Data on one compound can be found in patent US20210379077A1, “TOPOISOMERASE II CATALYTIC INHIBITOR COMPOUND THERAPEUTICS FOR CANCER TREATMENT, METHODS AND USES” (The University of British Columbia, priority 2018, published 2021).

The subject of one test is pHOT plasmid DNA. The test can be described thus: DNA intercalating assay. The conditions noted are these: 0, 5, 10, 25 and 50 μM, compared with m-AMSA. On the procedure: (§1) DNA samples were separated by electrophoresis on 0.8% agarose gels and visualized by ethium bromide staining. The positions of K-DNA and decatenated (D) DNA products are marked by arrows. Experiments were repeated five times and the densitometry of the D bands were used to establish an inhibition curve to calculate IC50. (b) Supercoiled pHOT™ plasmid was incubated with human TOP2a in the presence of 50 μM Etopside, 50 uM ICRF193 or 0-50 μM of compound #60 (Top60) compound at 37° C. for 1 hour. DNA products were separated by electrophoresis on 1% agarose gels and visualized by ethium bromide staining. The positions of supercoiled (SC), nicked (N), and relaxed (R) DNA bands are marked by arrows. Experiments were repeated five times and the densitometiy of the SC bands were used to establish an inhibition curve to calculate IC50. (c) Supercoiled pHOT™ plasmid was incubated with Topoisomerase I prior to addition of either mAMSA or compound #60 (Top60) at concentrations of 0, 5, 10, 25 and 50 μM at 37° C. for 30 minutes. […]
(§2) Top60 is a catalytic inhibitor of Topo II To verify that our lead Compound 60(Top60), the formation of ds DNA breaks was assayed both in and outside of cells. […] Furthermore, H2AXγ protein expression was assessed by Western blot to determine if the lead compound could cause DNA damage in cells, and compared to Etoposide as a control (FIG. 3b). […]

For test [1], the target named is T1, Topo IIα (Homo sapiens, UniProt P11388). The test can be described thus: DNA cleavage assay (linear DNA formation). It counts as biochemical. The conditions noted are these: supercoiled plasmid with Topo II, 50 μM. On the set-up: purchased TopoGENE (TopoGEN) TG2000H. On the procedure: as §1, §2
The target in test [2] is T1, Topo IIα. The test is described as follows: Thermal shift assay in cells. The conditions noted are these: K562 cells, 20 μM. It counts as binding. On the set-up: endogenous in cells; host or cells: K562. On the procedure: Whole cell lyses were collected and used to measure protein levels of TOP2α, TOP2β with β-Actin as a loading control; (b) K562 cells were treated with 0, 1, and 10 μM of Top60 for 24 hours. Protein lyses were collected from soluble nuclear extract, chromatin fraction or whole cell lysate. TOP2α and TOP2β protein levels were determined by immunoblotting with Lamin A/C, Histone H3 and β-Actin as loading controls; and (c) Etoposide-resistant K562 cell line was established by treating cells with 0.5 μM of Etoposide for 6 months. TOP2α, TOP2β, and β-actin protein levels were determined by immunoblotting. Etoposide-resistant K562 cells were treated with 0, 1, 10, 15 and 20 μM of Top60, Etoposide or ICRF187 for 48 hours. Cell proliferation rates were determined by MTS assays.
Thermal shift and chromatin fraction assays—In the thermal shift assays, cells were treated with vehicle or compound #60 (Top60) for 1 hour, split into equal aliquots to be heated at 37 to 46 degrees in a PCR machine. Protein lyses were collected to perform immunoblotting assays with Topo II antibodies. In the chromatin fraction assays, cells were treated with vehicle or compound #60 (Top60). Both soluble and chromatin associated proteins were fractioned following the protocol described by Wysocka J et al.^18. Protein lyses were collected to perform immunoblotting assays with Topo II antibodies. […]

In a further test the test system is Cancer Cell. The test is described as follows: Cancer cell growth inhibition. The test is classed as cell-based. On the set-up: key: Y is an indication that activity was found. The procedure: BrDU incorporation and cell proliferation assays—Cell proliferation rates were measured by using the CellTitre™ 96 AqueousOne™ kit (Promega™) and bromodeoxyuridine (BrdU) assay kit (Millipore™) according to the manufacturer's protocol, with minor modifications as we have previously described by Li H. et al.^19

For another test, the system named is Hela cells. The test is described as follows: FACS cell cycle assay. It counts as cell-based. The conditions noted are these: 20 μM, 48 hours. On the procedure:
BrdU incorporation rates were determined by Millipore™ BrdU incorporation kit (CAT #2750). (b-c) Hela cells were treated with vehicle or 20 μM of Top60 for 48 hours. Cells were then stained with APC-BrdU and 7-AAD for 4 hours, and subjected to FACS assays to determine cell populations at Sub G0/G1, G0/G1, S, and G2/M phases. Results were collected from three independent experiments, (d-e) Hela cells were treated with either vehicle or 20 μM T60 for 48 hours. Cells were fixed and co-stained with DAPI and phalloidin, and examined by confocal microscopy. Fifty cells were chosen from five high power fields to analyze nuclei sizes by the Image J software. Representative bright field microscopic images were also shown. Scale bar=50 μm.
FACS assays—Cell cycling was assessed by using BrdU incorporation into S-phase DNA through using the APC BrdU flow kit (BD Pharmingen™; Franklin Lakes, N.J., USA) according to manufacturer's protocol. Briefly, 1 mM of BrdU was added to cells and incubated for 6 hours. Cells were incubated with anti-BrdU antibody and stained with 7-AAD before processing the cells for flow cytometry.

T1 sequence (P11388 whole entry): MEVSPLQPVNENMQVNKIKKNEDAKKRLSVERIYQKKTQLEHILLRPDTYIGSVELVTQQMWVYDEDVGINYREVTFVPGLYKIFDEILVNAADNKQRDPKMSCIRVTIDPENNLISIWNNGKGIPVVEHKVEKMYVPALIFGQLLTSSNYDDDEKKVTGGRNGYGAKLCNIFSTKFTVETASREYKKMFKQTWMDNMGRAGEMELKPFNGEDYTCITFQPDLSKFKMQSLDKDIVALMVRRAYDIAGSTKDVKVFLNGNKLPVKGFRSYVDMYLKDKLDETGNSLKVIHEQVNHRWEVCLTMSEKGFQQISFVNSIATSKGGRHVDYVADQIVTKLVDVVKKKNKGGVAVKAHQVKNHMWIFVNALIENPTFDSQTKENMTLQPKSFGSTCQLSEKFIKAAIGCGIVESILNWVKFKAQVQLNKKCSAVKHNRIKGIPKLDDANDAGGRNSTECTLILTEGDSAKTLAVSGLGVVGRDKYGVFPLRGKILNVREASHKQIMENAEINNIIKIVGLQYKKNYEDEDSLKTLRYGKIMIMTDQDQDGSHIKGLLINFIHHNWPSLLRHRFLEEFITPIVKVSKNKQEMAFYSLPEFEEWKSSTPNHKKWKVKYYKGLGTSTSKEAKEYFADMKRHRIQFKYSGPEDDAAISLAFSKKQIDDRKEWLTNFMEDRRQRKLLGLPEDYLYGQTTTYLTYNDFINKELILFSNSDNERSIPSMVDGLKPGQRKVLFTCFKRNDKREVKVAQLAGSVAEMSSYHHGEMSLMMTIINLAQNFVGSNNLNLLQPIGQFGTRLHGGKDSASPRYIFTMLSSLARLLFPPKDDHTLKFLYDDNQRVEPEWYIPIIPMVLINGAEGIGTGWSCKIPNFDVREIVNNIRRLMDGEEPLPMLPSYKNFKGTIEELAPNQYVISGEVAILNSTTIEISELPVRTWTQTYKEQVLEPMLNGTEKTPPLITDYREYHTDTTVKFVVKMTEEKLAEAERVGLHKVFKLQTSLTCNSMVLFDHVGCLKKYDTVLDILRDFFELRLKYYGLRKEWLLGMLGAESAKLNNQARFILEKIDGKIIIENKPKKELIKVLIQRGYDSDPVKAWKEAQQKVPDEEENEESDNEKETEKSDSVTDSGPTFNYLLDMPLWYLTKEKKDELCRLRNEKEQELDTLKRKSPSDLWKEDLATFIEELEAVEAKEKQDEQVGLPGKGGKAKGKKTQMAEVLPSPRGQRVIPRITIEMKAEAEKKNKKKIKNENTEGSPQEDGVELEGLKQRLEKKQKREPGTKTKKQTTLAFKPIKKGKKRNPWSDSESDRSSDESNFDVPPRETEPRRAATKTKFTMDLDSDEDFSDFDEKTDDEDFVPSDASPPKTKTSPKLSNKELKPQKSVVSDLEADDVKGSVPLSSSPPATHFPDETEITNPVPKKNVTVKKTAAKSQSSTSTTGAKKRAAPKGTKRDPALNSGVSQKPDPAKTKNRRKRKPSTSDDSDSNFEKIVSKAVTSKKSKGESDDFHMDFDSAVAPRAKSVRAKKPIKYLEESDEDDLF

As to `O=C(Nc1ccc(Nc2ccccc2)cc1)c1ccc[nH]c1=S` [Compound 60], in the test on pHOT plasmid DNA, the DNA intercalation entry is given as “not an intercalator”. Also, the “formation of linear DNA (double stranded DNA breaks, poison activity)” value is “no linear DNA is formed” on Topo IIα [1] and “almost no band corresponding to linear DNA is formed” at Topo IIα [1] (listed as Top60). Besides, the “temperature up to which Topo IIα was stabilized” value at Topo IIα [2] is “up to 43 °C”. The “Cancer Cell Growth Inhib.” value in the test on Cancer Cell is given as “Y”. Also, the “cell population in G2/M” value with Hela cells is reported as “increased cell population in G2/M”. Moreover, the “cell population in S-phase” value in the test with Hela cells is listed as “large cell population delayed in S-phase”.
